# Measured values reported in patent US9611314B2, “Functional peptide analogs of PEDF” (The Penn State Research Foundation, priority 2013, dated 2017).
# Where no end group is shown, it is not given here.
# B1: Pigment epithelium derived factor (protein)
# chain: QNVPSSSEGSPVPDSTGEPVEEEDPFFKVPVNKLAAAVSNFGYDLYRLRSSASPTGNVLLSPLSVATALSALSLGAEHRTESVIHRALYYDLITNPDIHSTYKELLASVTAPEKNLKSASRIVFERKLRVKSSFVAPLEKSYGTRPRILTGNPRVDLQEINNWVQAQMKGKIARSTREMPSALSILLLGVAYFKGQWVTKFDSRKTTLQDFHLDEDRTVRVPMMSDPKAILRYGLDSDLNCKIAQLPLTGSMSIIFFLPLTVTQNLTMIEESLTSEFIHDIDRELKTIQAVLTVPKLKLSFEGELTKSLQDMKLQSLFESPDFSKITGKPVKLTQVEHRAAFEWNEEGAGSSPSPGLQPVRLTFPLDYHLNQPFLFVLRDTDTGALLFIGRILDPSST
# Legend:
# [1] = Peptide bioavailability in mouse vitreous after 5 μg eye drop (MALDI TOF); assay type: in vivo, C57BL/6 mice; conditions: mouse, in vivo
# Method: Before the longitudinal efficacy studies were carried out in vivo, the bioavailability of the five analogs was examined in comparison to the parent compound P78 and its active 29-mer derivative, SpxA1.
# Bioavailability of each peptide was determined in vitreous samples obtained at various time points after eye drops were given. Vitreous samples were harvested from enucleated eyes and immediately analyzed by mass spectrometry. Spectral intensities were compared to spectra of known concentrations of each analog to calculate amounts of peptides reaching the vitreous. The eye drops administered to normal mouse eyes contained 5 μg of the test compound. Bioavailability was studied at three time points: 1, 4, 6 hr using four animals/time point (n=8 eyes). The vitreous was rapidly dissected from each group after the drops were given and immediately analyzed by MALDI TOF.
# [2] = Peptide bioavailability in primate eyes, vitreous humor by mass spectrometry; assay type: in vivo, primate (Vervets); conditions: 100 μg topical
# Excerpt: From the studies using the DR mouse model, two active, structurally diverse peptides 81-5 and 81-13 were selected to test their availability in the primate eye when given topically. There are substantial differences between the eyes of rodents, primates, and humans. The most obvious is size of the aqueous and vitreous fluid compartments. Fluid flow forward from the ciliary body in primates/humans is countercurrent to drug movement to the back of the eye and may influence drug concentrations in the vitreous. In this study, it was examined whether the selected compounds had access to the retina when given topically to primate eyes as they do in rodents. Peptide doses used were scaled up by 8-20 fold as an estimate to account for differences in eye volume between rodents and primates.
# Adult males and females were equally distributed into 3 treatment groups (Table 3) and randomized by weight criteria. Animals were fasted overnight then sedated with ketamine (8 mg/kg, I.M) and xylazine (1.6 mg/kg, I.M) prior to all procedures. Two monkeys received a topical dose of 40 μg (40 μl) of 81-5 OU (both eyes) and underwent vitreocentesis at ˜1 hr (Group 1) after dosing. […]
# Samples were analyzed by mass spectrometry and concentrations calculated using a standard curve that plotted intensity vs known concentration. […]
# transcription factors = experiment: Procarta multiplex transcription factor DNA binding activity; assay type: cell-based; conditions: 50 nM peptides, 48 hr, human RPE cells
# Method: Activation of transcription factors by P78, spx or 81-5 was measured in human RPE cells. The Affymetrix Procarta Multiplex Transcription factor panel (Affymetrix, Inc. Santa Clara, Calif.) was used to obtain quantitative measurement of DNA binding activity of 44 transcription factors. Cells were seeded at 1×10^5 cells/ml in 6 well plates. Cells were treated with 50 nM peptides in 2% FBS medium for 48 hr, peptides were supplied twice after 24 hr. Cells were harvested using Buffer A working reagent (250 μl well)(1 ml Buffer A: 10 μl DTT, 10 μl protease inhibitor, 10 μl phosphatase inhibitor I, 10 μl phosphatase inhibitor II) and centrifuged at 14,000×g for 3 min at 4° C. Supernatant containing cytoplasmic proteins was collected and protein concentration estimated using the BioRad DC protein assay. To the nuclear pellets, 30 μl/well buffer B (1 ml Buffer B: 10 μl DTT, 10 μl protease inhibitor, 10 μl phosphatase inhibitor I) was added and the samples incubated for 2 hours at 200 rpm. Supernatant containing nuclear proteins was collected by centrifugation at 14,000×g for 5 min at 4° C. and protein concentration measured using Bio-Rad DC protein assay. […] The beads were washed again, resuspended with reading buffer, and incubated for 5 min at room temperature. DNA binding activity of the transcription factors was measured using the Bio-Plex 200 system (bio-Rad) and the xMAP technology.
Molecule,bioavailability profile in rodents [1],"peptide concentration in the vitreous, 1 versus 2 hr [2]",regulation of transcription factors (transcription factors)
"SALSLGAAERTESIIHR [Peptide 81-13, SALSLGAAERTESIIHR]",comparable bioavailability profiles with 81-5,not significantly different between the 1 and 2 hr treatment,–
B1,–,–,regulates transcription factors
